Test system: 616215-338-R-J1-PDC tumor spheroids, viability
Assay: Anticancer human tumor 616215-338-R-J1-PDC patient-derived colon adenocarcinoma cell line growth inhibition [GQUAD]
Details: spheroids with HUVEC and MSC; for IC50: curve of first compound; for viability, T/C: stronger effect = lower value
Summary of the method: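 Tumor cells were grown as complex spheroids with HUVEC endothelial cells and mesenchymal stem cells as stroma. G-quadruplex stabilizers were combined with targeted agents over half-log dilutions from near the clinical Cmax, or from 10 microM.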

[1] = second compound 0.0316 µM, first compound 0.0316 µM
[2] = second compound 0.0316 µM, first compound 0.1 µM
[3] = second compound 0.0316 µM, first compound 0.316 µM
[4] = second compound 0.0316 µM, first compound 1 µM
[5] = second compound 0.0316 µM, first compound 3.16 µM
[6] = second compound 0.0316 µM, first compound 10 µM
[7] = second compound 0.1 µM, first compound 0.0316 µM
[8] = second compound 0.1 µM, first compound 0.1 µM
[9] = second compound 0.1 µM, first compound 0.316 µM
[10] = second compound 0.1 µM, first compound 1 µM
[11] = second compound 0.1 µM, first compound 3.16 µM
[12] = second compound 0.1 µM, first compound 10 µM
[13] = second compound 0.316 µM, first compound 0.0316 µM
[14] = second compound 0.316 µM, first compound 0.1 µM
[15] = second compound 0.316 µM, first compound 0.316 µM
[16] = second compound 0.316 µM, first compound 1 µM
[17] = second compound 0.316 µM, first compound 3.16 µM
[18] = second compound 0.316 µM, first compound 10 µM
[19] = second compound 1 µM, first compound 0.0316 µM
[20] = second compound 1 µM, first compound 0.1 µM
[21] = second compound 1 µM, first compound 0.316 µM
[22] = second compound 1 µM, first compound 1 µM
[23] = second compound 1 µM, first compound 3.16 µM
[24] = second compound 1 µM, first compound 10 µM
[25] = second compound 3.16 µM, first compound 0.0316 µM
[26] = second compound 3.16 µM, first compound 0.1 µM
[27] = second compound 3.16 µM, first compound 0.316 µM
[28] = second compound 3.16 µM, first compound 1 µM
[29] = second compound 3.16 µM, first compound 3.16 µM
[30] = second compound 3.16 µM, first compound 10 µM
[31] = second compound 10 µM, first compound 0.0316 µM
[32] = second compound 10 µM, first compound 0.1 µM
[33] = second compound 10 µM, first compound 0.316 µM
[34] = second compound 10 µM, first compound 1 µM
[35] = second compound 10 µM, first compound 3.16 µM
[36] = second compound 10 µM, first compound 10 µM
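Also: spheroids exposed to agents for 7 days before readout.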
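For viability, T/C in this document: percent viability relative to DMSO vehicle control wells taken as 100%.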

SMILES: Cc1cccc(N(C)C(=O)C2C(O)CCN2c2nc(C)cc(C(F)(F)F)c2C#N)c1 (stereo not drawn) + Cc1cnc(CNC(=O)c2c(=O)c3ccc(N4CCCN(C)CC4)nc3n3c2sc2ccccc23)cn1
- IC50 (second compound 0.0316 µM): > 10000 nM
- IC50 (second compound 0.1 µM): < 31.6 nM
- IC50 (second compound 0.316 µM): < 31.6 nM
- IC50 (second compound 1 µM): < 31.6 nM
- IC50 (second compound 3.16 µM): < 31.6 nM
- IC50 (second compound 10 µM): < 31.6 nM
- viability, T/C [1]: 106%
- viability, T/C [2]: 101%
- viability, T/C [3]: 109%
- viability, T/C [4]: 103%
- viability, T/C [5]: 95.8%
- viability, T/C [6]: 98.6%
- viability, T/C [7]: 37.9%
- viability, T/C [8]: 68.2%
- viability, T/C [9]: 56.2%
- viability, T/C [10]: 80.6%
- viability, T/C [11]: 81.8%
- viability, T/C [12]: 49%
- viability, T/C [13]: 50.5%
- viability, T/C [14]: 46.1%
- viability, T/C [15]: 50.2%
- viability, T/C [16]: 48.9%
- viability, T/C [17]: 57.9%
- viability, T/C [18]: 42%
- viability, T/C [19]: 32.6%
- viability, T/C [20]: 35.1%
- viability, T/C [21]: 39.1%
- viability, T/C [22]: 31.9%
- viability, T/C [23]: 38.3%
- viability, T/C [24]: 29.3%
- viability, T/C [25]: 31.7%
- viability, T/C [26]: 27.9%
- viability, T/C [27]: 33.5%
- viability, T/C [28]: 30.5%
- viability, T/C [29]: 29.1%
- viability, T/C [30]: 34.8%
- viability, T/C [31]: 30.5%
- viability, T/C [32]: 37%
- viability, T/C [33]: 31.1%
- viability, T/C [34]: 26.7%
- viability, T/C [35]: 32.2%
- viability, T/C [36]: 29.9%

SMILES: C=CCn1c(=O)c2cnc(Nc3ccc(N4CCN(C)CC4)cc3)nc2n1-c1cccc(C(C)(C)O)n1 + Cc1cnc(CNC(=O)c2c(=O)c3ccc(N4CCCN(C)CC4)nc3n3c2sc2ccccc23)cn1
- IC50 (second compound 0.0316 µM): 255 nM
- IC50 (second compound 0.1 µM): 131 nM
- IC50 (second compound 0.316 µM): < 31.6 nM
- IC50 (second compound 1 µM): < 31.6 nM
- IC50 (second compound 3.16 µM): < 31.6 nM
- IC50 (second compound 10 µM): < 31.6 nM
- viability, T/C [1]: 110%
- viability, T/C [2]: 71.4%
- viability, T/C [3]: 44.4%
- viability, T/C [4]: 32.2%
- viability, T/C [5]: 23.4%
- viability, T/C [6]: 21.9%
- viability, T/C [7]: 57.2%
- viability, T/C [8]: 55%
- viability, T/C [9]: 40.1%
- viability, T/C [10]: 38.3%
- viability, T/C [11]: 24.4%
- viability, T/C [12]: 17.8%
- viability, T/C [13]: 44.1%
- viability, T/C [14]: 39.4%
- viability, T/C [15]: 30%
- viability, T/C [16]: 30.2%
- viability, T/C [17]: 27.7%
- viability, T/C [18]: 21%
- viability, T/C [19]: 29.8%
- viability, T/C [20]: 30.8%
- viability, T/C [21]: 21%
- viability, T/C [22]: 21.9%
- viability, T/C [23]: 25.2%
- viability, T/C [24]: 17.3%
- viability, T/C [25]: 31.2%
- viability, T/C [26]: 31.8%
- viability, T/C [27]: 19.8%
- viability, T/C [28]: 17.5%
- viability, T/C [29]: 12.2%
- viability, T/C [30]: 16.8%
- viability, T/C [31]: 25.1%
- viability, T/C [32]: 26.2%
- viability, T/C [33]: 13.2%
- viability, T/C [34]: 15.5%
- viability, T/C [35]: 16.8%
- viability, T/C [36]: 15.5%

SMILES: O=C(c1cc(Cc2n[nH]c(=O)c3ccccc23)ccc1F)N1CCN(C(=O)C2CC2)CC1 + CN(C)c1ccc(Nc2c3ccc(NC(=O)CCN4CCCC4)cc3nc3cc(NC(=O)CCN4CCCC4)ccc23)cc1
- IC50 (second compound 0.0316 µM): > 10000 nM
- IC50 (second compound 0.1 µM): > 10000 nM
- IC50 (second compound 0.316 µM): > 10000 nM
- IC50 (second compound 1 µM): > 10000 nM
- IC50 (second compound 3.16 µM): > 10000 nM
- IC50 (second compound 10 µM): > 10000 nM
- viability, T/C [1]: 100%
- viability, T/C [2]: 95.7%
- viability, T/C [3]: 103%
- viability, T/C [4]: 111%
- viability, T/C [5]: 110%
- viability, T/C [6]: 71.9%
- viability, T/C [7]: 103%
- viability, T/C [8]: 102%
- viability, T/C [9]: 104%
- viability, T/C [10]: 103%
- viability, T/C [11]: 111%
- viability, T/C [12]: 74.8%
- viability, T/C [13]: 104%
- viability, T/C [14]: 114%
- viability, T/C [15]: 112%
- viability, T/C [16]: 106%
- viability, T/C [17]: 99.3%
- viability, T/C [18]: 68.6%
- viability, T/C [19]: 108%
- viability, T/C [20]: 100%
- viability, T/C [21]: 96.9%
- viability, T/C [22]: 97.3%
- viability, T/C [23]: 104%
- viability, T/C [24]: 69%
- viability, T/C [25]: 112%
- viability, T/C [26]: 97.8%
- viability, T/C [27]: 98.8%
- viability, T/C [28]: 109%
- viability, T/C [29]: 105%
- viability, T/C [30]: 57.4%
- viability, T/C [31]: 96.6%
- viability, T/C [32]: 82.9%
- viability, T/C [33]: 99.3%
- viability, T/C [34]: 99.6%
- viability, T/C [35]: 67%
- viability, T/C [36]: 54.9%

SMILES: Nc1ccn(C2OC(CO)C(O)C2(F)F)c(=O)n1 (stereo not drawn) + Cc1[nH]c2ccc(F)cc2c1-c1nc2c3cccnc3c3ncccc3c2[nH]1
- IC50 (second compound 0.0316 µM): < 31.6 nM
- IC50 (second compound 0.1 µM): 33.6 nM
- IC50 (second compound 0.316 µM): < 31.6 nM
- IC50 (second compound 1 µM): < 31.6 nM
- IC50 (second compound 3.16 µM): < 31.6 nM
- IC50 (second compound 10 µM): < 31.6 nM
- viability, T/C [1]: 39%
- viability, T/C [2]: 26.1%
- viability, T/C [3]: 19.7%
- viability, T/C [4]: 13.7%
- viability, T/C [5]: 14%
- viability, T/C [6]: 16.1%
- viability, T/C [7]: 51.6%
- viability, T/C [8]: 20.2%
- viability, T/C [9]: 13.4%
- viability, T/C [10]: 12.9%
- viability, T/C [11]: 16.2%
- viability, T/C [12]: 17.1%
- viability, T/C [13]: 43.9%
- viability, T/C [14]: 23.8%
- viability, T/C [15]: 14.6%
- viability, T/C [16]: 13.9%
- viability, T/C [17]: 16%
- viability, T/C [18]: 13.6%
- viability, T/C [19]: 39.2%
- viability, T/C [20]: 31.1%
- viability, T/C [21]: 14.8%
- viability, T/C [22]: 11.8%
- viability, T/C [23]: 13.4%
- viability, T/C [24]: 13.8%
- viability, T/C [25]: 29.9%
- viability, T/C [26]: 22%
- viability, T/C [27]: 18.2%
- viability, T/C [28]: 13.8%
- viability, T/C [29]: 11%
- viability, T/C [30]: 14.6%
- viability, T/C [31]: 38.7%
- viability, T/C [32]: 17.2%
- viability, T/C [33]: 12.4%
- viability, T/C [34]: 14%
- viability, T/C [35]: 13.8%
- viability, T/C [36]: 13.8%
